Experimental data: US12662490B2, “Heterocyclic compounds” (Hoffmann-La Roche Inc., priority 2019, dated 2026)

Target: T1, MAGL (Homo sapiens, UniProt Q99685)
T1 sequence (Q99685 1-303): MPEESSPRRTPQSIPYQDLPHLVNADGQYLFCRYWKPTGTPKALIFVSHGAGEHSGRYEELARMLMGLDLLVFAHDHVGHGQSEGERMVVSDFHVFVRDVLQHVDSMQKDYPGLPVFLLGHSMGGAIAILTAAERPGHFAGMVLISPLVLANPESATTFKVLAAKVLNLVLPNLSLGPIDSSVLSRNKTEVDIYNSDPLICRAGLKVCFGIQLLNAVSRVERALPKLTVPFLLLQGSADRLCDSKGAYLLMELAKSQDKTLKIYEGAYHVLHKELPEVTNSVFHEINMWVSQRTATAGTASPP
Experiment: 2-AG assay (MAGL inhibitory activity; hydrolysis of 2-arachidonoylglycerol to arachidonic acid followed by mass spectrometry)
Format: biochemical
Conditions: 15 min preincubation at RT, 8 μM 2-arachidonoylglycerol, 30 min at RT, RapidFire MS readout
Procedure, shortened: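 Compounds (final 12.5 μM to […], 3-fold steps) preincubated 15 min at RT with MAGL ([…]) in 50 mM TRIS, 1 mM EDTA, Tween buffer. Reaction started with 8 μM 2-arachidonoylglycerol, run 30 min at RT, quenched with ACN containing d8-arachidonic acid. Arachidonic acid quantified by RapidFire SPE-triple quadrupole MS (negative ESI), activity from arachidonic acid/d8 ratio.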

Row | Structure (SMILES) | IC50 [nM]
1 | O=C(c1cccc(-c2c[nH]nc2F)c1Cl)N1CCN2C[C@@](O)(c3ccc(C(F)(F)F)nc3)OC[C@@H]2C1 [Example 65, [(3R,9aS)-3-hydroxy-3-[6-(trifluoromethyl)pyridin-3-yl]-1,4,6,7,9,9a-hexahydropyrazino[2,1-c][1,4]oxazin-8-yl]-[2-chloro-3-(3-fluoro-1H-pyrazol-4-yl)phenyl]methanone] | 13.8
2 | O=C(c1cccc(-c2c[nH]nc2F)c1Cl)N1CCN2C[C@@](O)(c3ccc(OC(F)F)cc3)OC[C@@H]2C1 [Example 69, [2-chloro-3-(3-fluoro-1H-pyrazol-4-yl)phenyl]-[(3R,9aS)-3-[4-(difluoromethoxy)phenyl]-3-hydroxy-1,4,6,7,9,9a-hexahydropyrazino[2,1-c][1,4]oxazin-8-yl]methanone] | 51.8
3 | COc1cccc(C(=O)N2CCN3C[C@@](O)(c4nc5ccccc5n4C)OC[C@@H]3C2)c1Cl [Example 71, [(3S,9aS)-3-hydroxy-3-(1-methylbenzimidazol-2-yl)-1,4,6,7,9,9a-hexahydropyrazino[2,1-c][1,4]oxazin-8-yl]-(2-chloro-3-methoxy-phenyl)methanone] | 4030
4 | N#Cc1cc([C@@H]2CN3CCN(C(=O)c4cccc(-c5c[nH]nc5F)c4Cl)C[C@H]3CO2)ccc1F [Example 72, 5-[(3R,9aS)-8-[2-chloro-3-(3-fluoro-1H-pyrazol-4-yl)benzoyl]-3,4,6,7,9,9a-hexahydro-1H-pyrazino[2,1-c][1,4]oxazin-3-yl]-2-fluoro-benzonitrile] | 61.4
5 | COc1cccc(C(=O)N2CCN3C[C@H](c4cc(Cl)c[nH]c4=O)OC[C@@H]3C2)c1Cl [Example 74, 3-[(3S,9aS)-8-(2-chloro-3-methoxy-benzoyl)-3,4,6,7,9,9a-hexahydro-1H-pyrazino[2,1-c][1,4]oxazin-3-yl]-5-chloro-1H-pyridin-2-one] | 2210
6 | COc1cccc(C(=O)N2CCN3C[C@@H](c4cc(Cl)c[nH]c4=O)OC[C@@H]3C2)c1Cl [Example 75, 3-[(3R,9aS)-8-(2-chloro-3-methoxy-benzoyl)-3,4,6,7,9,9a-hexahydro-1H-pyrazino[2,1-c][1,4]oxazin-3-yl]-5-chloro-1H-pyridin-2-one] | 850
7 | O=C(c1cccc(-c2cnco2)c1Cl)N1CCN2C[C@@](O)(c3ccc(F)c(Cl)c3)OC[C@@H]2C1 [Example 76, [(3R,9aS)-3-(3-chloro-4-fluoro-phenyl)-3-hydroxy-1,4,6,7,9,9a-hexahydropyrazino[2,1-c][1,4]oxazin-8-yl]-(2-chloro-3-oxazol-5-yl-phenyl)methanone] | 15.5
8 | O=C(c1cccc(-c2c[nH]nc2F)c1Cl)N1CCN2C[C@@H](c3cc(Cl)c[nH]c3=O)OC[C@@H]2C1 [Example 77, 3-[(3R,9aS)-8-[2-chloro-3-(3-fluoro-1H-pyrazol-4-yl)benzoyl]-3,4,6,7,9,9a-hexahydro-1H-pyrazino[2,1-c][1,4]oxazin-3-yl]-5-chloro-1H-pyridin-2-one] | 46.3
9 | O=C(c1cccc(-c2c[nH]nc2F)c1F)N1CCN2C[C@@](O)(c3ccc(C(F)(F)F)nc3)OC[C@@H]2C1 [Example 78, [(3R,9aS)-3-hydroxy-3-[6-(trifluoromethyl)-3-pyridyl]-1,4,6,7,9,9a-hexahydropyrazino[2,1-c][1,4]oxazin-8-yl]-[2-fluoro-3-(3-fluoro-1H-pyrazol-4-yl)phenyl]methanone] | 130
10 | N#Cc1n[nH]cc1-c1cccc(C(=O)N2CCN3C[C@@](O)(c4ccc(C(F)(F)F)nc4)OC[C@@H]3C2)c1Cl [Example 80, 4-[3-[(3R,9aS)-3-hydroxy-3-[6-(trifluoromethyl)-3-pyridyl]-1,4,6,7,9,9a-hexahydropyrazino[2,1-c][1,4]oxazine-8-carbonyl]-2-chloro-phenyl]-1H-pyrazole-3-carbonitrile] | 26.2
11 | O=C(c1cccc(-c2c[nH]nc2F)c1)N1CCN2C[C@@](O)(c3ccc(C(F)(F)F)nc3)OC[C@@H]2C1 [Example 81, [(3R,9aS)-3-hydroxy-3-[6-(trifluoromethyl)-3-pyridyl]-1,4,6,7,9,9a-hexahydropyrazino[2,1-c][1,4]oxazin-8-yl]-[3-(3-fluoro-1H-pyrazol-4-yl)phenyl]methanone] | 80.4
12 | O=C(c1cccc(-c2cn[nH]c2)c1Cl)N1CCN2C[C@@](O)(c3ccc(C(F)(F)F)nc3)OC[C@@H]2C1 [Example 82, [(3R,9aS)-3-hydroxy-3-[6-(trifluoromethyl)-3-pyridyl]-1,4,6,7,9,9a-hexahydropyrazino[2,1-c][1,4]oxazin-8-yl]-[2-chloro-3-(1H-pyrazol-4-yl)phenyl]methanone] | 15.9
13 | COc1cccc(C(=O)N2CCN3C[C@@H](c4cc(C)c(Cl)cn4)OC[C@@H]3C2)c1Cl [Example 83, (2-chloro-3-methoxyphenyl)((3S,9aS)-3-(5-chloro-4-methylpyridin-2-yl)hexahydropyrazino[2,1-c][1,4]oxazin-8(1H)-yl)methanone] | 94.4
14 | COc1cccc(C(=O)N2CCN3C[C@H](c4cc(C)c(Cl)cn4)OC[C@@H]3C2)c1Cl [Example 84, (2-chloro-3-methoxyphenyl)((3R,9aS)-3-(5-chloro-4-methylpyridin-2-yl)hexahydropyrazino[2,1-c][1,4]oxazin-8(1H)-yl)methanone] | 333
15 | O=C(c1cccc(-c2c[nH]nc2F)c1Cl)N1CCN2C[C@@](O)(c3ccc(C(F)(F)F)cn3)OC[C@@H]2C1 [Example 85, [(3S,9aS)-3-hydroxy-3-[5-(trifluoromethyl)-2-pyridyl]-1,4,6,7,9,9a-hexahydropyrazino[2,1-c][1,4]oxazin-8-yl]-[2-chloro-3-(3-fluoro-1H-pyrazol-4-yl)phenyl]methanone] | 38.2
16 | O=C(c1cccc(-c2cocn2)c1Cl)N1CCN2C[C@@](O)(c3ccc(C(F)(F)F)cn3)OC[C@@H]2C1 [Example 86, [(3S,9aS)-3-hydroxy-3-[5-(trifluoromethyl)-2-pyridyl]-1,4,6,7,9,9a-hexahydropyrazino[2,1-c][1,4]oxazin-8-yl]-(2-chloro-3-oxazol-4-yl-phenyl)methanone] | 237
17 | COc1cccc(C(=O)N2CCN3C=C(c4nc5ccccc5s4)OCC3C2)c1Cl (stereo not shown) [Example 87, [3-(1,3-benzothiazol-2-yl)-6,7,9,9a-tetrahydro-1H-pyrazino[2,1-c][1,4]oxazin-8-yl]-(2-chloro-3-methoxy-phenyl)methanone] | 983
18 | O=C(c1cccc(-c2c[nH]nc2F)c1Cl)N1CCN2C[C@@](F)(c3ccc(C(F)(F)F)nc3)OC[C@@H]2C1 [Example 88, [2-chloro-3-(3-fluoro-1H-pyrazol-4-yl)phenyl]-[(3S,9aS)-3-fluoro-3-[6-(trifluoromethyl)-3-pyridyl]-1,4,6,7,9,9a-hexahydropyrazino[2,1-c][1,4]oxazin-8-yl]methanone] | 10.7
19 | COc1cccc(C(=O)N2CCN3C[C@@H](c4ccc(C(F)(F)F)nn4)OC[C@@H]3C2)c1Cl [Example 89, (2-chloro-3-methoxy-phenyl)-[(3S,9aS)-3-[6-(trifluoromethyl)pyridazin-3-yl]-3,4,6,7,9,9a-hexahydro-1H-pyrazino[2,1-c][1,4]oxazin-8-yl]methanone] | 2030
20 | COc1cccc(C(=O)N2CCN3C[C@H](c4cc(Cl)ccn4)OC[C@@H]3C2)c1Cl [Example 90, [(3R,9aS)-3-(4-chloro-2-pyridyl)-3,4,6,7,9,9a-hexahydro-1H-pyrazino[2,1-c][1,4]oxazin-8-yl]-(2-chloro-3-methoxy-phenyl)methanone] | 2310
21 | COc1cccc(C(=O)N2CCN3C[C@@H](c4cc(Cl)ccn4)OC[C@@H]3C2)c1Cl [Example 91, [(3S,9aS)-3-(4-chloro-2-pyridyl)-3,4,6,7,9,9a-hexahydro-1H-pyrazino[2,1-c][1,4]oxazin-8-yl]-(2-chloro-3-methoxy-phenyl)methanone] | 232
22 | O=C(c1cccc(-c2c[nH]nc2F)c1Cl)N1CCN2C[C@@](O)(c3ccc(F)c(F)c3)OC[C@@H]2C1 [Example 92, [(3R,9aS)-3-(3,4-difluorophenyl)-3-hydroxy-1,4,6,7,9,9a-hexahydropyrazino[2,1-c][1,4]oxazin-8-yl]-[2-chloro-3-(3-fluoro-1H-pyrazol-4-yl)phenyl]methanone] | 9.1
23 | O=C(c1cccc(-c2c[nH]nc2F)c1)N1CCN2C[C@@](O)(c3ccc(F)c(F)c3)OC[C@@H]2C1 [Example 93, [(3R,9aS)-3-(3,4-difluorophenyl)-3-hydroxy-1,4,6,7,9,9a-hexahydropyrazino[2,1-c][1,4]oxazin-8-yl]-[3-(3-fluoro-1H-pyrazol-4-yl)phenyl]methanone] | 81.9
24 | O=C(c1cccc(-c2c[nH]nc2F)c1Cl)N1CCN2C=C(c3ccc(C(F)(F)F)cn3)OC[C@@H]2C1 [Example 94, [(9aS)-3-[5-(trifluoromethyl)-2-pyridyl]-6,7,9,9a-tetrahydro-1H-pyrazino[2,1-c][1,4]oxazin-8-yl]-[2-chloro-3-(3-fluoro-1H-pyrazol-4-yl)phenyl]methanone] | 220
25 | O=C(c1cccc(-c2c[nH]nc2F)c1Cl)N1CCN2C[C@@H](c3ccc(F)c(F)c3)OC[C@@H]2C1 [Example 95, [(3R,9aS)-3-(3,4-difluorophenyl)-3,4,6,7,9,9a-hexahydro-1H-pyrazino[2,1-c][1,4]oxazin-8-yl]-[2-chloro-3-(3-fluoro-1H-pyrazol-4-yl)phenyl]methanone] | 7.6
